Data: EP0987254B1, “NOVEL CYCLIC DIAMINE COMPOUNDS AND MEDICINE CONTAINING THE SAME” (Kowa Co., Ltd., priority 1997, dated 1998)
In brackets after ≈: the same amount, converted by molar mass. Where two headings read alike, the source gives them in different places.

Key:
ACAT (small intestine) = assay: ACAT inhibitory action, enzyme from small intestine; format: biochemical; details: B = the small intestine of rabbits fed normal feed; 14C-oleoyl-CoA, 37°C, three minutes
Protocol: (§1) Microsome was prepared by a conventional method from stethartery of rabbits fed for eight weeks with a 1% cholesterol feed and was suspended in a 0.15M phosphate buffer (pH 7.4) to provide an enzyme solution. An enzyme solution derived from small intestine was prepared from small intestine or rabbits fed with normal feed. […] The solvent layer was concentrated to dryness, the residue was dissolved in hexane and the solution was spotted on a TLC plate (manufactured by Merck) followed by developing with hexane : ether : acetic acid (75:25:1). Radioactivity of the resulting cholesterol ester fraction was measured by a BAS 2000 (manufactured by Fuji Photo Film) and IC50 values were determined from a comparative calculation with the control to which only DMSO was added.

J774 cells = assay: ACAT inhibitory action (anti-foaming action) in J774 cells; details: for IC50 (HepG2) /IC50 (J774): ratio HepG2 / J774, 1080 min
Protocol: (§2) The medium was removed and, after washing with PBS twice, extraction was conducted with 1.5 ml of hexane : isopropanol (3:2) followed by concentrating to dryness. The extract was dissolved in 0.2 ml of isopropanol containing 10% of 10% Triton X-100 and total cholesterol (TC) and free cholesterol (FC) were determined by a Cholesterol E Test Wako (Wako Pure Chemicals) and a Free Cholesterol E Test Wako (Wako Pure Chemicals), respectively. Residue of the cells after extraction was solubilized with 0.25 ml of 2N NaOH at 30°C for 30 minutes and amount of protein was determined by means of a BCA Protein Assay Reagent (Pierce). From the difference between TC and FC, amount of cholesterol ester per protein was calculated and then IC50 was determined by means of a comparative calculation with the control.

ACAT (blood vessel wall) = assay: ACAT inhibitory action, microsome enzyme from blood vessel wall (stethartery); format: biochemical, rabbits; details: for IC50: A = the blood vessel wall, microsome from stethartery of rabbits fed 1% cholesterol feed, 14C-oleoyl-CoA, 37°C, five minutes; for IC50 (B) /IC50 (A): ratio small intestine / blood vessel wall
Protocol: as §1

HepG2 cells = assay: ACAT inhibitory action (anti-foaming action) in HepG2 cells
Protocol: as §2

[1] = Disintegration test: solubility in liquid No.1 for disintegration test of the Japanese Pharmacopoeia; format: physicochemical; details: jp disintegration liquid no.1; pH 1.2; liquid No.1, shaken two hours, room temperature one hour, 0.45 µm filter
Protocol: Absorbance of a mixture of this filtrate with methanol in the same amounts was measured and, from the previously-determined ε1% 1cm values, solubility was calculated.

[2] = Homo sapiens, HepG2, 18 h, read-out: Enzyme (HepG2) IC50(µM)
[3] = Mus musculus, J774, 18 h, read-out: Enzyme (J774) IC50(µM)

Row | IC50 (ACAT (small intestine)) [nM] | IC50 (HepG2) /IC50 (J774) (J774 cells) | IC50 (ACAT (blood vessel wall)) [nM] | IC50 (B) /IC50 (A) (ACAT (blood vessel wall)) | IC50 (HepG2 cells; [2]) [µM] | IC50 (J774 cells; [3]) [µM] | solubility [1] [µg/mL] | SMILES | IC50 (HepG2 cells; read-out: Enzyme (HepG2) IC50, HepG2 cells, 10 µg/ml 25-OH cholesterol, 18 hours, cholesterol ester per protein) [µM] | IC50 (J774 cells; read-out: Enzyme (J774) IC50, J774 cells, 10 µg/ml 25-OH cholesterol, 18 hours, cholesterol ester per protein) [µM]
1 | 130 | 14.5 | 56 | 2.3 | – | – | – | COC(=O)c1cccc2oc(SCCN3CCN(CC(=O)Nc4c(C(C)C)cccc4C(C)C)CC3)nc12 [Example 5, 2-[4-[2-(4-methoxycarbonylbenzoxazol-2-ylthio)ethyl]-piperazin-1-yl]-N-(2,6-diisopropylphenyl) acetamide] | – | –
2 | 39 | 18.2 | 35 | 1.1 | – | – | – | COC(=O)c1cccc2nc(SCCCN3CCN(CC(=O)Nc4c(C(C)C)cccc4C(C)C)CC3)oc12 [Example 10, 2-[4-[3-(7-methoxycarbonylbenzoxazol - 2-ylthio)propyl]piperazin-1-yl]-N-(2,6-diisopropylphenyl) acetamide] | – | –
3 | 210 | >100 | 38 | 5.5 | > 10 | 0.1 | – | COc1cc(C(C)C)c(NC(=O)CN2CCN(CCSc3nc4ccccc4o3)CC2)c(C(C)C)c1 [Example 75, 2-[4-[2-(benzoxazol-2-ylthio)ethyl]-piperazin-1-yl]-N-(2,6-diisopropyl-4-methoxyphenyl)-acetamide] | – | –
4 | 210 | 58.6 | 40 | 5.3 | 0.82 | 0.014 | – | CCOCCOc1cc(C(C)C)c(NC(=O)CN2CCN(CCSc3nc4ccccc4o3)CC2)c(C(C)C)c1 [Example 78, 2-[4-[2-(benzoxazol-2-ylthio)ethyl]piperazin-1-yl]-N-[2,6-diisopropyl-4-(2-ethoxyethyl)oxyphenyl)acetamide] | – | –
5 | 59 | >53 | 12 | 4.9 | > 1 | 0.019 | – | CC(C)c1cccc(C(C)C)c1NC(=O)CN1CCN(CCSc2nc3cccc(C(F)(F)F)c3o2)CC1 [Example 85, 2-[4-[2-(7-trifluoromethylbenzoxazol-2-ylthio)ethyl]piperazin-1-yl]-N-(2,6-diisopropylphenyl)acetamide] | – | –

More lines, now with the values behind:

Row | SMILES | IC50 (ACAT (small intestine)) [nM] | IC50 (HepG2) /IC50 (J774) (J774 cells) | IC50 (ACAT (blood vessel wall)) [nM] | IC50 (B) /IC50 (A) (ACAT (blood vessel wall)) | IC50 (HepG2 cells; [2]) [µM] | IC50 (J774 cells; [3]) [µM] | solubility [1] [µg/mL] | IC50 (HepG2 cells; read-out: Enzyme (HepG2) IC50, HepG2 cells, 10 µg/ml 25-OH cholesterol, 18 hours, cholesterol ester per protein) [µM] | IC50 (J774 cells; read-out: Enzyme (J774) IC50, J774 cells, 10 µg/ml 25-OH cholesterol, 18 hours, cholesterol ester per protein) [µM]
6 | CCCCCCCN(CCCCCSc1nc(-c2ccccc2)c(-c2ccccc2)[nH]1)c1nc2ccccc2o1 [Control 4, reference compound] | 37 | 6.3 | 26 | 1.4 | – | – | – | 0.75 | 0.12
7 | CC(C)c1cccc(C(C)C)c1NC(=O)C(C)(C)CCCOc1ccc2c(c1)C=C(c1nccn1C)C(CCc1ccc(F)cc1)O2 (stereo not shown) [Control 1, 5-[2-(2-(4-Fluorophenyl)ethyl)-3-(1-methyl-1H-imidazol-2-yl)-2H-1-benzopyran-6-yl]oxy-2,2-dimethyl-N-(2,6-diisopropylphenyl) -pentanamide, reference compound] | 870 | 9.5 | 450 | 1.9 | – | 0.56 | – | – | –
8 | CCCC(CCCCC(=O)Nc1c(C(C)C)cccc1C(C)C)Sc1nc2ccccc2o1 (stereo not shown) [Control 5, 6-(Benzoxazol-2-ylthio)-N-(2,6-diisopropylphenyl)nonanamide] | – | – | – | – | – | – | 0.05 (≈ 0.107 µM) | – | –
9 | CCCCCCCCCN(CC(C)(C)C)C(=O)N[C@H]1CCCC[C@@H]1OC(=O)CCNC(=O)C1OC(C)(C)OCC1(C)C (stereo partly shown) [Control 3, reference compound] | 56 | – | 34 | – | – | – | – | – | –
